Structures are written as SMILES.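 Assay format: 96-well plates, 48-hour exposure. GI50 = concentration required for 50% inhibition of growth. At the TGI there is no net growth.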 Where a SMILES comes first, the peptide text is derived from it. Side-chain parts run from the residue outwards. The star is where a group is joined. Cbz = O=C(OCc1ccccc1)*; Boc = CC(C)(C)OC(=O)* Some results are limits rather than exact numbers.

Some test systems named below: CCRF-CEM leukemia; HL-60(TB) leukemia; MDA-MB-435; MOLT-4 leukemia; NCI-H460 lung; RXF 393 renal; UO-31 renal.
Common to all, as to assay: growth of human tumour cells (NCI), 48 h

Regarding `COc1ccc(N2C(=O)C3c4[nH]c5ccccc5c4C4c5ccccc5CC4C3C2=O)cc1` (configuration not stated), the TGI with CCRF-CEM leukemia, in the test on HL-60(TB) leukemia, in the test on MDA-MB-435, in the test on MOLT-4 leukemia, with NCI-H460 lung and with RXF 393 renal was over 100 µM throughout. Further, the TGI with UO-31 renal was over 100 µM.
As for `C[C@@]12C[C@@H](c3ccccc3O1)N1Cc3ccccc3CSC1=N2`, the TGI in the test with MDA-MB-435, in the test on MOLT-4 leukemia, in the test with NCI-H460 lung, in the test on RXF 393 renal and in the test with UO-31 renal was over 100 µM each time.
As for `CC(C)(C)OC(=O)n1c(Cl)c(C=O)c2ccccc21`, the TGI in the test on CCRF-CEM leukemia is 79.4 µM; with HL-60(TB) leukemia, over 100 µM; in the test on MDA-MB-435, over 100 µM; in the test on MOLT-4 leukemia it was over 100 µM; with NCI-H460 lung, 46.1 µM; in the test with UO-31 renal it was 41.3 µM.
In the case of `CN(/N=C/c1ccc(Cl)cc1)C1=NCCCCN1`, the TGI in the test with CCRF-CEM leukemia, with HL-60(TB) leukemia, in the test with MDA-MB-435, in the test with MOLT-4 leukemia, in the test with NCI-H460 lung and in the test with UO-31 renal was over 100 µM in each case.
Take `O=C1CC(C(COCc2ccccc2)OCc2ccccc2)CC(=O)N1` (configuration not stated): the TGI in the test with CCRF-CEM leukemia, in the test with HL-60(TB) leukemia, with MDA-MB-435, with MOLT-4 leukemia and in the test with UO-31 renal was over 100 µM in each case.
Regarding `CC(C)(C)OC(=O)NC(CCCCNC(=O)CNC(=O)OCc1ccccc1)C(=O)NC(CCCCNC(=O)CNC(=O)OCc1ccccc1)C(=O)NC(CCCCNC(=O)CNC(=O)OCc1ccccc1)C(=O)NC(CCCCNC(=O)CNC(=O)OCc1ccccc1)C(=O)O` (configuration not stated) (Boc-K([Gly-Cbz])K([Gly-Cbz])K([Gly-Cbz])K([Gly-Cbz])-OH; configuration not given here), the TGI in the test with CCRF-CEM leukemia, with HL-60(TB) leukemia, in the test with MOLT-4 leukemia, in the test with NCI-H460 lung and in the test on UO-31 renal was over 100 µM each time.
Turning to `COc1ccc(C2=C(Cl)c3cc(OC)c(OC)cc3C2)cc1OC`, the TGI is over 100 µM in the test with CCRF-CEM leukemia; over 100 µM with HL-60(TB) leukemia; over 100 µM in the test with MOLT-4 leukemia; 73.7 µM in the test on RXF 393 renal; over 100 µM in the test on UO-31 renal.
Turning to `COc1cc(C(O)C(=O)c2cnc3cc([N+](=O)[O-])ccc3n2)ccc1O` (configuration not stated), the TGI in the test on CCRF-CEM leukemia, with HL-60(TB) leukemia, in the test on MOLT-4 leukemia, with NCI-H460 lung, in the test with RXF 393 renal and in the test with UO-31 renal was over 100 µM each time.
Regarding `Cc1c2cccc-2c(OCCOC(=O)n2ccnc2)cc2c1[nH]c1ccccc12`, the TGI in the test with HL-60(TB) leukemia amounted to 5.46 µM; with MDA-MB-435 it was 9.69 µM; with MOLT-4 leukemia it was 25.2 µM; in the test on NCI-H460 lung, 18.1 µM; in the test on UO-31 renal, 3.39 µM.
`COc1cc2c(c(OC)c1OC)-c1ccc(SC)c(=O)cc1[C@@H](NCc1cccc([N+](=O)[O-])c1)CC2`: the TGI in the test on CCRF-CEM leukemia is over 100 µM; in the test with HL-60(TB) leukemia, over 100 µM; in the test with MOLT-4 leukemia, over 100 µM; in the test with NCI-H460 lung it was 12.4 µM; in the test with UO-31 renal, over 100 µM.
In the case of `COc1ccc([C@H]2c3cc4c(cc3OC(O)(CO)[C@H]2C(=O)O)OCO4)c(OC)c1` (some centres not stated) (tested in a mixture with another compound), the TGI in the test with CCRF-CEM leukemia, with HL-60(TB) leukemia, in the test on MOLT-4 leukemia, with NCI-H460 lung, in the test with RXF 393 renal and in the test on UO-31 renal was over 100 µM in each case.
`CN(C)CC1CCCc2ccccc2C1=O` (configuration not stated): the TGI in the test with MDA-MB-435 was 2.62 µM; in the test on NCI-H460 lung it was 39.9 µM; in the test on RXF 393 renal, 11.7 µM; with UO-31 renal, 3.45 µM.
Regarding `C1=CN2C[n+]3ccc4ccccc4c3N=C2c2ccccc21`, the TGI amounted to 23.7 µM with CCRF-CEM leukemia; 9.1 µM in the test with HL-60(TB) leukemia; 7.24 µM in the test with MDA-MB-435; 13.3 µM with MOLT-4 leukemia; 16.4 µM in the test on NCI-H460 lung; 69.3 µM in the test with UO-31 renal.
With `COc1ccc(CCCN2c3ccccc3Sc3ccccc32)cc1`, the TGI in the test on CCRF-CEM leukemia, in the test on HL-60(TB) leukemia, in the test with MOLT-4 leukemia, with NCI-H460 lung, in the test with RXF 393 renal and with UO-31 renal was over 100 µM each time.
Turning to `CCn1c(=O)c2c3ccc(OC)cc3[nH]c2c2ccc(OC)cc21`, the TGI in the test on CCRF-CEM leukemia, with MDA-MB-435, in the test on MOLT-4 leukemia, in the test with RXF 393 renal and in the test with UO-31 renal was over 100 µM each time.
With `O=C(NN1C(=O)C(Cl)C1c1ccccc1Cl)c1ccccc1O` (configuration not stated), the TGI is over 100 µM in the test on CCRF-CEM leukemia; over 100 µM in the test with HL-60(TB) leukemia; over 100 µM with MOLT-4 leukemia; over 100 µM with NCI-H460 lung; 88.2 µM with RXF 393 renal; over 100 µM in the test with UO-31 renal.
For the compound `O=C(NNS(=O)(=O)c1ccccc1)c1csc(NC(=S)NC2CCCCC2)n1`, the TGI with CCRF-CEM leukemia is over 100 µM; with HL-60(TB) leukemia, over 100 µM; in the test with MDA-MB-435, 43.3 µM; in the test on MOLT-4 leukemia, over 100 µM; with UO-31 renal, 74.1 µM.
Regarding `COc1cc(-c2nc3cc(Cl)c(Cl)cc3[nH]2)ccc1OCC(=O)N=Nc1c(O)[nH]c2ccc(Cl)cc12`, the GI50 with CCRF-CEM leukemia is 0.28 µM; in the test with MOLT-4 leukemia it was 0.321 µM; in the test on RXF 393 renal, 1 µM; in the test on UO-31 renal, over 100 µM. Also, the TGI in the test on CCRF-CEM leukemia is 5.27 µM; in the test with MOLT-4 leukemia it was 1.59 µM; in the test with RXF 393 renal, 3.4 µM; with UO-31 renal, over 100 µM.
In the case of `CCCCOc1ccc2c(c1)CC[C@@H]1[C@@H]2CC[C@]2(C)C(=O)N(CCCC)C(=O)C[C@@H]12`, the TGI with CCRF-CEM leukemia, in the test with HL-60(TB) leukemia, in the test on MDA-MB-435, in the test on MOLT-4 leukemia, with NCI-H460 lung and with UO-31 renal was over 100 µM throughout.

The record behind these values is PubChem BioAssay (NCI).
